Assay results as given in patent US11608341B2, “Substituted tetrahydropyrazolo[3,4-d]pyrimidines and tetrahydropyrazolo[4,3-d]pyrimidines as C5A receptor modulators” (Idorsia Pharmaceuticals Ltd., priority 2018, dated 2023).

Molecular target: T1, C5AR1 (Homo sapiens, UniProt P21730)
T1 construct: host or cells: CHO-K1
T1 sequence (P21730 1-350): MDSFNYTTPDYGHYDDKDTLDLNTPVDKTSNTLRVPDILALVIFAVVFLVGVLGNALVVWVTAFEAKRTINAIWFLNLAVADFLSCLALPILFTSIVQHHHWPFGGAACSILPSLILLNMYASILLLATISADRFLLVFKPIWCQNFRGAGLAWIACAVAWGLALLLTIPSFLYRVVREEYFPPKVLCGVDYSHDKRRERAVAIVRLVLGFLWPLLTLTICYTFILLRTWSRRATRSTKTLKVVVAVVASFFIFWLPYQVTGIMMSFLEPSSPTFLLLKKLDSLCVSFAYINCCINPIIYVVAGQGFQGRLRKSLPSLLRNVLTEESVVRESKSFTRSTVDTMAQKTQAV
Assay: In vitro assay: antagonism of C5a-induced beta-arrestin recruitment (PathHunter) in CHO-K1 C5AR1 beta-arrestin cell line
Assay type: cell-based
Settings: antagonistic activity, 1-10 nM C5a agonist, geometric mean where several measurements, read-out: C5aR IC50
Protocol: 5 μl Antagonist at 6-fold end concentration or DMSO control is added to assay medium and subsequently 5 μl 1-10 nM C5a agonist at 6 fold end concentration. Cells are centrifuged for 1 min at 1000 rpm and incubated for 1.5 hour in at 37° C. Plates are equilibrated at room temperature for several minutes before adding 12 μl/well Detection Reagent (PathHunter Detection Kit, DiscoverX, Cat #93-0001). Plates are centrifuged for 1 min at 1000 rpm and incubated for 45 minutes at RT before being measured on a Fluostar Optima, BMG Labtech. IC50 values are calculated from a serial dilution range of antagonist using inhouse software and given in nmol/l.
The calculated IC50 values may fluctuate depending on the daily cellular assay performance. Fluctuations of this kind are known to those skilled in the art. Average IC50 values from several measurements are given as geometric mean values.

| IC50 [nM] | Compound |
| --- | --- |
| 572 | COc1nccc(C)c1N1CCC(N2C(=O)N(Cc3ncccc3C(F)(F)F)c3nn(C)cc3C2C)CC1 (single isomer, unassigned) [Example 357] |
| 12 | COc1nccc(C(F)F)c1N1CCC(N2C(=O)N(Cc3ccccc3C(F)(F)F)c3nn(C4CC4)cc3C2C)CC1 (single isomer, unassigned) [Example 358] |
| 185 | COc1nccc(C(F)F)c1N1CCC(N2C(=O)N(Cc3ccccc3C(F)(F)F)c3nn(C4CC4)cc3C2C)CC1 (single isomer, unassigned) [Example 359] |
| 3 | CC1c2cn(C3CC3)nc2N(Cc2ccccc2C(F)(F)F)C(=O)N1C1CCN(c2c(F)cccc2Br)CC1 (single isomer, unassigned) [Example 360] |
| 13 | CC1c2cn(C3CC3)nc2N(Cc2ccccc2C(F)(F)F)C(=O)N1C1CCN(c2c(F)cccc2Br)CC1 (single isomer, unassigned) [Example 361] |
| 9 | COc1nccc(C(F)(F)F)c1N1CCC(N2C(=O)N(Cc3ccccc3C(F)(F)F)c3nn(C)cc3C2C)CC1 (single isomer, unassigned) [Example 362] |
| 97 | COc1nccc(C(F)(F)F)c1N1CCC(N2C(=O)N(Cc3ccccc3C(F)(F)F)c3nn(C)cc3C2C)CC1 (single isomer, unassigned) [Example 363] |
| 286 | COc1nccc(C(F)F)c1N1CCC(N2C(=O)N(Cc3ccccc3C3CC3)c3nn(C)cc3C2C)CC1 (single isomer, unassigned) [Example 367] |
| 256 | COc1nccc(C)c1N1CCC(N2C(=O)N(Cc3ccccc3C3CC3)c3nn(C)cc3C2C)CC1 (single isomer, unassigned) [Example 369] |
| 19 | COc1nccc(C(F)F)c1N1CCC(N2C(=O)N(Cc3ccccc3C3CC3)c3n[nH]cc3C2C)CC1 (single isomer, unassigned) [Example 370] |
| 1330 | COc1nccc(C(F)F)c1N1CCC(N2C(=O)N(Cc3ccccc3C3CC3)c3n[nH]cc3C2C)CC1 (single isomer, unassigned) [Example 371] |
| 11 | CC1c2c[nH]nc2N(Cc2ccccc2C2CC2)C(=O)N1C1CCN(c2c(F)cccc2Cl)CC1 (single isomer, unassigned) [Example 372] |
| 1010 | CC1c2c[nH]nc2N(Cc2ccccc2C2CC2)C(=O)N1C1CCN(c2c(F)cccc2Cl)CC1 (single isomer, unassigned) [Example 373] |
| 8 | COc1nccc(C(F)(F)F)c1N1CCC(N2C(=O)N(Cc3ccccc3C3CC3)c3nn(C)cc3C2C)CC1 (single isomer, unassigned) [Example 374] |
| 146 | COc1nccc(C(F)(F)F)c1N1CCC(N2C(=O)N(Cc3ccccc3C3CC3)c3nn(C)cc3C2C)CC1 (single isomer, unassigned) [Example 375] |
| 5 | COc1nccc(Cl)c1N1CCC(N2C(=O)N(Cc3ccccc3C(F)(F)F)c3nn(C)cc3C2C)CC1 (single isomer, unassigned) [Example 376] |
| 552 | COc1nccc(Cl)c1N1CCC(N2C(=O)N(Cc3ccccc3C(F)(F)F)c3nn(C)cc3C2C)CC1 (single isomer, unassigned) [Example 377] |
| 6 | COc1nccc(Cl)c1N1CCC(N2C(=O)N(Cc3ccccc3C3CC3)c3nn(C)cc3C2C)CC1 (single isomer, unassigned) [Example 378] |
| 412 | COc1nccc(Cl)c1N1CCC(N2C(=O)N(Cc3ccccc3C3CC3)c3nn(C)cc3C2C)CC1 (single isomer, unassigned) [Example 379] |

| IC50 [nM] | Compound |
| --- | --- |
| 21 | COc1nccc(C)c1N1CCC(N2C(=O)N(Cc3ccccc3C3CC3)c3nn(C4CC4)cc3C2C)CC1 (single isomer, unassigned) [Example 380] |
| 190 | COc1nccc(C)c1N1CCC(N2C(=O)N(Cc3ccccc3C3CC3)c3nn(C4CC4)cc3C2C)CC1 (single isomer, unassigned) [Example 381] |
| 21 | COc1nccc(C(F)F)c1N1CCC(N2C(=O)N(Cc3ccccc3C3CC3)c3nn(C4CC4)cc3C2C)CC1 (single isomer, unassigned) [Example 382] |
| 204 | COc1nccc(C(F)F)c1N1CCC(N2C(=O)N(Cc3ccccc3C3CC3)c3nn(C4CC4)cc3C2C)CC1 (single isomer, unassigned) [Example 383] |
| 12 | CC1c2cn(C)nc2N(Cc2ccccc2C2CC2)C(=O)N1C1CCN(c2c(F)cccc2Br)CC1 (single isomer, unassigned) [Example 384] |
| 491 | CC1c2cn(C)nc2N(Cc2ccccc2C2CC2)C(=O)N1C1CCN(c2c(F)cccc2Br)CC1 (single isomer, unassigned) [Example 385] |
| 45 | Cc1cccc(F)c1N1CCC(N2Cc3nn(C)cc3N(Cc3ncccc3C(F)(F)F)C2=O)CC1 [Example 15] |
| 74 | Cc1cccc(F)c1N1CCC(N2Cc3c(ncn3C)N(Cc3ccccc3C(F)(F)F)C2=O)CC1 [Example 16] |
| 13 | COC(=O)Cn1cc2c(n1)N(Cc1ccccc1C(F)(F)F)C(=O)N(C1CCN(c3c(C)cccc3F)CC1)C2 [Example 17] |
| 132 | COC(=O)Cn1cc2c(n1)CN(C1CCN(c3c(C)cccc3F)CC1)C(=O)N2Cc1ccccc1C(F)(F)F [Example 18] |
| 637 | COC(=O)Cn1ncc2c1CN(C1CCN(c3c(C)cccc3F)CC1)C(=O)N2Cc1ccccc1C(F)(F)F [Example 19] |
| 12 | Cc1cccc(F)c1N1CCC(N2Cc3cn(CCO)nc3N(Cc3ccccc3C(F)(F)F)C2=O)CC1 [Example 20] |
| 13 | Cc1cccc(F)c1N1CCC(N2Cc3cn(C)nc3N(Cc3ccccc3OC3CC3)C2=O)CC1 [Example 21] |
| 10 | Cc1cccc(F)c1N1CCC(N2Cc3cn(C)nc3N(Cc3ncccc3C(F)(F)F)C2=O)CC1 [Example 22] |
| 15 | Cc1cccc(F)c1N1CCC(N2Cc3cn(CC#N)nc3N(Cc3ccccc3C(F)(F)F)C2=O)CC1 [Example 24] |
| 18 | Cc1cccc(F)c1N1CCC(N2Cc3cn(CC(C)(C)O)nc3N(Cc3ccccc3C(F)(F)F)C2=O)CC1 [Example 25] |
| 173 | Cc1cccc(F)c1N1CCC(N2Cc3cn(CCN)nc3N(Cc3ccccc3C(F)(F)F)C2=O)CC1 [Example 26] |
| 17 | COC(=O)C(C)(C)n1cc2c(n1)N(Cc1ccccc1C(F)(F)F)C(=O)N(C1CCN(c3c(C)cccc3F)CC1)C2 [Example 27] |
| 83 | CCOC(Cn1cc2c(n1)N(Cc1ccccc1C(F)(F)F)C(=O)N(C1CCN(c3c(C)cccc3F)CC1)C2)OCC [Example 28] |

| IC50 [nM] | Compound |
| --- | --- |
| 103 | Cc1cccc(F)c1N1CCC(N2Cc3cn(CC(N)=O)nc3N(Cc3ccccc3C(F)(F)F)C2=O)CC1 [Example 29] |
| 95 | Cc1cccc(F)c1N1CCC(N2Cc3cn(CC(=O)N(C)C)nc3N(Cc3ccccc3C(F)(F)F)C2=O)CC1 [Example 30] |
| 13 | COC(=O)C(C)Cn1cc2c(n1)N(Cc1ccccc1C(F)(F)F)C(=O)N(C1CCN(c3c(C)cccc3F)CC1)C2 (centres unmarked) [Example 31] |
| 14 | Cc1cccc(F)c1N1CCC(N2Cc3cn(C(C)(C)CO)nc3N(Cc3ccccc3C(F)(F)F)C2=O)CC1 [Example 32] |
| 12 | Cc1cccc(F)c1N1CCC(N2Cc3cn(CC(C)O)nc3N(Cc3ccccc3C(F)(F)F)C2=O)CC1 (centres unmarked) [Example 33] |
| 22 | COC1CN(CCn2cc3c(n2)N(Cc2ccccc2C(F)(F)F)C(=O)N(C2CCN(c4c(C)cccc4F)CC2)C3)C1 [Example 34] |
| 9 | Cc1cccc(F)c1N1CCC(N2Cc3cn(C)nc3N(Cc3nc(Cl)ccc3C(F)(F)F)C2=O)CC1 [Example 35] |
| 7 | Cc1cccc(F)c1N1CCC(N2Cc3cn(C)nc3N(Cc3nc(F)ccc3C(F)(F)F)C2=O)CC1 [Example 36] |
| 53 | Cc1ccc(C(F)(F)F)c(CN2C(=O)N(C3CCN(c4c(C)cccc4F)CC3)Cc3cn(C)nc32)n1 [Example 37] |
| 12 | COc1ccc(C(F)(F)F)c(CN2C(=O)N(C3CCN(c4c(C)cccc4F)CC3)Cc3cn(C)nc32)n1 [Example 38] |
| 16 | Cc1cccc(F)c1N1CCC(N2Cc3cn(CC(C)CO)nc3N(Cc3ccccc3C(F)(F)F)C2=O)CC1 (centres unmarked) [Example 39] |
| 27 | Cc1cccc(F)c1N1CCC(N2Cc3cn(CC(O)CO)nc3N(Cc3ccccc3C(F)(F)F)C2=O)CC1 (centres unmarked) [Example 40] |
| 17 | COC[C@H](O)Cn1cc2c(n1)N(Cc1ccccc1C(F)(F)F)C(=O)N(C1CCN(c3c(C)cccc3F)CC1)C2 [Example 41] |
| 24 | COC(=O)C(Cl)Cn1cc2c(n1)N(Cc1ccccc1C(F)(F)F)C(=O)N(C1CCN(c3c(C)cccc3F)CC1)C2 (centres unmarked) [Example 42] |
| 18 | Cc1cccc(F)c1N1CCC(N2Cc3cn(CC(C)C#N)nc3N(Cc3ccccc3C(F)(F)F)C2=O)CC1 (centres unmarked) [Example 43] |
| 35 | Cc1cccc(F)c1N1CCC(N2Cc3cn(C)nc3N(Cc3ccccc3C(F)(F)F)C2=O)C1 (centres unmarked) [Example 44] |
| 203 | Cc1cccc(F)c1N1CCC(N2Cc3cn(CC(C)CN)nc3N(Cc3ccccc3C(F)(F)F)C2=O)CC1 (centres unmarked) [Example 45] |
| 21 | COC[C@@H](O)Cn1cc2c(n1)N(Cc1ccccc1C(F)(F)F)C(=O)N(C1CCN(c3c(C)cccc3F)CC1)C2 [Example 46] |
